# Laboratory results published in patent US20080280862A1, “Methods, compositions, and kits for the treatment of pain” (priority 2007, published 2008).
# Assays:
# TNFα = TNFα secretion by human white blood cells stimulated with PMA/ionomycin, synergy score; type: cell-based; design: key: S = Σ Idata(Idata−ILoewe) × ln dilution factors; volume over Loewe additivity; conditions: PBMC stimulated with PMA/Ionomycin
# Method: A 100 μl suspension of diluted human white blood cells contained within each well of a polystyrene 384-well plate (NalgeNunc) was stimulated to secrete TNFα by treatment with a final concentration of 10 ng/mL phorbol 12-myristate 13-acetate (Sigma, P-1585) and 750 ng/mL ionomycin (Sigma, I-0634). Various concentrations of each test compound were added at the time of stimulation. After 16-18 hours of incubation at 37° C. in a humidified incubator, the plate was centrifuged and the supernatant transferred to a white opaque polystyrene 384-well plate (NalgeNunc, Maxisorb) coated with an anti-TNFα antibody (PharMingen, #551220). After a two-hour incubation, the plate was washed (Tecan PowerWasher 384) with PBS containing 0.1% Tween 20 and incubated for an additional one hour with another anti-TNFα antibody that was biotin labeled (PharMingen, #554511) and HRP coupled to strepavidin (PharMingen, #13047E). After the plate was washed with 0.1% Tween 20/PBS, an HRP-luminescent substrate was added to each well and light intensity measured using a LJL Analyst plate luminometer.
# The synergy scores calculated for the various combinations of compounds set forth in Table 3 was calculated by the formula S=log fX log fYΣIdata(Idata−ILoewe), summed over all non-single-agent concentration pairs, and where log fX,Y are the natural logarithm of the dilution factors used for each single agent. This effectively calculates a volume between the measured and Loewe additive response surfaces, weighted towards high inhibition and corrected for varying dilution factors.
# [1] = system: formalin-induced pain model in rats; experiment: Formalin pain model, nociceptive behaviors; type: in vivo, Sprague-Dawley rats; conditions: 20 mg/kg
# Method: The formalin model is a fast, reliable model used to assess potential analgesics ability to block inflammatory pain. The analgesic effects of test article combinations on pain generation are assayed using the formalin-induced pain model in rats. Adult male Sprague-Dawley rats are administered intraperitoneally study drugs (vehicle, TCA, steroid or TCA/Steroid test article combinations) once daily for 2 days (day −2 and day −1) and 30 minutes prior to the formalin injection day on day 0 (time=0). […] To elicit a pain response, dilute formalin (2% in saline) is injected under the skin of the plantar surface of the right hindpaw. The animal is placed in an observation chamber. The pain response is a characteristic biphasic response pattern of nociceptive behaviors (lifting, licking, and biting of the injected paw). Two distinct periods of nociceptive behaviors/activity are observed and recorded: an early phase (phase I) lasting the first 5-10 min and a late phase (phase II) lasting 20-40 min after the injection of formalin. One hour of data is collected (time spent displaying pain behavior) by a blinded observer using a stopwatch. Results are expressed as the number of pain behaviors per 5 minute periods (Table 8 and Table 9).
# [2] = system: carrageenan-induced pain model in rats; experiment: Carrageenan pain model, mechanical allodynia by Von Frey filaments; type: in vivo, Sprague-Dawley rats; conditions: for Mean change from baseline ± SEM: 25 mg/kg; for mean change from baseline: Table 4, 25 mg/kg ip
# Method: The carrageenan model is a fast, reliable model used to assess the ability of analgesics to block inflammatory pain. The analgesic effects of test article combinations on pain generation are assayed using the carrageenan-induced pain model in rats. Adult male Sprague-Dawley rats are administered study drugs intraperitoneally (vehicle, tricyclic compound (TCA), steroid or TCA/Steroid test article combinations) once daily for 2 days (day −2 and day −1) and 30 minutes prior to the carrageenan injection on day 0 (time=0). For the carrageenan injection, animals are lightly anesthetized and 0.1 ml of 2% carrageenan is injected into the plantar surface of the right hind paw. The positive control diclofenac at a dose of 25 mg/kg is administered intraperitoneally immediately before the carrageenan injection. Paw volumes (right and left) are measured using a plathysmometer before drug administration on day −2 and serve as a baseline measurement. The paw volumes are measured again two hours post carrageenan injection. The degree of mechanical allodynia is measured by a blinded observer using Von Frey filaments applied to the plantar surface of the hind paws in an increasing numerical order. Each filament increases the force applied on the paw. The filaments are applied until animal paw withdrawal is achieved. This procedure is carried out before drug administration (day −2), on day −1 and on day 0 at time=0, 20, 40, 60, 80 and 120 minutes post-carrageenan. The force (expressed in grams) required for paw withdrawal after carrageenan injection is subtracted from the force required for paw withdrawal before carrageenan injection. Results are expressed as mean change from baseline across five timepoints post carrageenan injection in Table 4.
# For a synergy calculation, experimental data from the carrageenan study are fitted to a median-effect model and used to calculate the parameters' median-effect dose (Dm), slope (m), correlation coefficient (r), combination index (CI) and dose-reduction index (DRI). In addition, the probability of pain inhibition occurring after single-component (nortriptyline) versus the combination drug treatments are calculated from the negative change from baseline data using a Bayesian sensitivity analysis. The likelihood of pain inhibition is characterized for nortriptyline administered alone (1 mg/kg or 3 mg/kg) versus the fixed-dose combination treatments [prednisolone (0.3 mg/kg):nortriptyline (1 mg/kg) or prednisolone (1 mg/kg):nortriptyline (3 mg/kg)] each evaluated at 60 and 80 minutes for analgesic effect.
# In another example, the effects of test article combinations on pain inhibition were assayed using the carrageenan model in rodents. Desipramine was tested alone and in combination at 0.3, 1, and 3 mg/kg and prednisolone was tested similarly at 0.3, 1 and 3 mg/kg IP.
# [3] = combination with Hydrocortisone
smiles,measurement,setting,value
CN(C)CCC=C1c2ccccc2C=Cc2ccccc21 [Cyclobenzaprine],Synergy Score based on TNF-α inhibition,TNFα; combination with Betamethasone,0.29
same,Synergy Score based on TNF-α inhibition,TNFα; combination with Budesonide,0.7
same,Synergy Score based on TNF-α inhibition,TNFα; combination with Dexamethasone,1.2
same,Synergy Score based on TNF-α inhibition,TNFα; [3],0.21
same,Synergy Score based on TNF-α inhibition,TNFα; combination with Prednisolone,0.36
same,Synergy Score based on TNF-α inhibition,TNFα; combination with Triamcinolone,0.37
CNCCCC1c2ccccc2C=Cc2ccccc21 [Protriptyline],Synergy Score based on TNF-α inhibition,TNFα; combination with Betamethasone,0.53
same,Synergy Score based on TNF-α inhibition,TNFα; combination with Budesonide,1.2
same,Synergy Score based on TNF-α inhibition,TNFα; combination with Clobetasol,0.95
same,Synergy Score based on TNF-α inhibition,TNFα; combination with Dexamethasone,1.3
same,Synergy Score based on TNF-α inhibition,TNFα; combination with Diflorasone,0.67
same,Synergy Score based on TNF-α inhibition,TNFα; [3],0.68
same,Synergy Score based on TNF-α inhibition,TNFα; combination with Prednisolone,1.1
same,Synergy Score based on TNF-α inhibition,TNFα; combination with Triamcinolone,0.37
Clc1ccc2c(c1)C(N1CCNCC1)=Nc1ccccc1O2 [Amoxapine],Synergy Score based on TNF-α inhibition,TNFα; combination with Betamethasone,0.68
same,Synergy Score based on TNF-α inhibition,TNFα; combination with Budesonide,0.63
same,Synergy Score based on TNF-α inhibition,TNFα; combination with Dexamethasone,1.3
same,Synergy Score based on TNF-α inhibition,TNFα; [3],0.56
same,Synergy Score based on TNF-α inhibition,TNFα; combination with Prednisolone,1.1
same,Synergy Score based on TNF-α inhibition,TNFα; combination with Triamcinolone,0.37
CN1CC[C@]23c4c5ccc(O)c4O[C@H]2[C@@H](O)C=C[C@H]3[C@H]1C5 [Morphine],Mean number of behaviors per 5 minute block,"[1]; Experiment One, amitriptyline, 5 minutes",116.0 ± 39.2
same,Mean number of behaviors per 5 minute block,"[1]; Experiment One, amitriptyline, 10 minutes",19.0 ± 13.7
same,Mean number of behaviors per 5 minute block,"[1]; Experiment One, amitriptyline, 15 minutes",17.0 ± 10.4
same,Mean number of behaviors per 5 minute block,"[1]; Experiment One, amitriptyline, 20 minutes",53.0 ± 32.2
same,Mean number of behaviors per 5 minute block,"[1]; Experiment One, amitriptyline, 25 minutes",77.0 ± 40.2
same,Mean number of behaviors per 5 minute block,"[1]; Experiment One, amitriptyline, 30 minutes",65.0 ± 36.2
same,Mean number of behaviors per 5 minute block,"[1]; Experiment One, amitriptyline, 35 minutes",66.0 ± 34.4
same,Mean number of behaviors per 5 minute block,"[1]; Experiment One, amitriptyline, 40 minutes",58.0 ± 33.3
same,Mean number of behaviors per 5 minute block,"[1]; Experiment One, amitriptyline, 45 minutes",33.0 ± 22.6
same,Mean number of behaviors per 5 minute block,"[1]; Experiment One, amitriptyline, 50 minutes",11.0 ± 10.3
same,Mean number of behaviors per 5 minute block,"[1]; Experiment One, amitriptyline, 55 minutes",2.0 ± 1.1
same,Mean number of behaviors per 5 minute block,"[1]; Experiment One, amitriptyline, 60 minutes",1.0 ± 0.6
same,Mean number of behaviors per 5 minute block,"[1]; Experiment One, nortriptyline, 5 minutes",120.0 ± 25.2
same,Mean number of behaviors per 5 minute block,"[1]; Experiment One, nortriptyline, 10 minutes",7.0 ± 5.3
same,Mean number of behaviors per 5 minute block,"[1]; Experiment One, nortriptyline, 15 minutes",2.0 ± 1.5
same,Mean number of behaviors per 5 minute block,"[1]; Experiment One, nortriptyline, 20 minutes",2.0 ± 1.1
same,Mean number of behaviors per 5 minute block,"[1]; Experiment One, nortriptyline, 25 minutes",1.0 ± 0.4
same,Mean number of behaviors per 5 minute block,"[1]; Experiment One, nortriptyline, 30 minutes",0.0 ± 0.0
same,Mean number of behaviors per 5 minute block,"[1]; Experiment One, nortriptyline, 35 minutes",0.0 ± 0.4
same,Mean number of behaviors per 5 minute block,"[1]; Experiment One, nortriptyline, 40 minutes",1.0 ± 1.2
same,Mean number of behaviors per 5 minute block,"[1]; Experiment One, nortriptyline, 45 minutes",20.0 ± 20.0
same,Mean number of behaviors per 5 minute block,"[1]; Experiment One, nortriptyline, 50 minutes",29.0 ± 28.6
same,Mean number of behaviors per 5 minute block,"[1]; Experiment One, nortriptyline, 55 minutes",29.0 ± 29.1
same,Mean number of behaviors per 5 minute block,"[1]; Experiment One, nortriptyline, 60 minutes",55.0 ± 36.4
same,Mean number of behaviors per 5 minute block,"[1]; Experiment Two, 5 minutes",64.0 ± 35.3
same,Mean number of behaviors per 5 minute block,"[1]; Experiment Two, 10 minutes",3.0 ± 3.0
same,Mean number of behaviors per 5 minute block,"[1]; Experiment Two, 15 minutes",0.0 ± 0.0
same,Mean number of behaviors per 5 minute block,"[1]; Experiment Two, 20 minutes",0.0 ± 0.4
same,Mean number of behaviors per 5 minute block,"[1]; Experiment Two, 25 minutes",0.0 ± 0.3
same,Mean number of behaviors per 5 minute block,"[1]; Experiment Two, 30 minutes",1.0 ± 1.1
same,Mean number of behaviors per 5 minute block,"[1]; Experiment Two, 35 minutes",1.0 ± 0.9
same,Mean number of behaviors per 5 minute block,"[1]; Experiment Two, 40 minutes",0.0 ± 0.1
same,Mean number of behaviors per 5 minute block,"[1]; Experiment Two, 45 minutes",8.0 ± 8.2
same,Mean number of behaviors per 5 minute block,"[1]; Experiment Two, 50 minutes",25.0 ± 16.4
same,Mean number of behaviors per 5 minute block,"[1]; Experiment Two, 55 minutes",56.0 ± 35.9
same,Mean number of behaviors per 5 minute block,"[1]; Experiment Two, 60 minutes",51.0 ± 36.9
O=C(O)Cc1ccccc1Nc1c(Cl)cccc1Cl [Diclofenac],Mean AUC ± SEM,"[2]; 25 mg/Kg, AUC from 20 minutes through 120 minutes following carrageenan injection",5332 ± 772.96
same,Mean change from baseline ± SEM,"[2]; Experiment One, 20 minutes",-17.50 ± 11.24 g
same,Mean change from baseline ± SEM,"[2]; Experiment One, 40 minutes",-74.70 ± 13.27 g
same,Mean change from baseline ± SEM,"[2]; Experiment One, 60 minutes",-146.70 ± 16.73 g
same,Mean change from baseline ± SEM,"[2]; Experiment One, 80 minutes",-203.30 ± 15.02 g
same,Mean change from baseline ± SEM,"[2]; Experiment One, 120 minutes",-259.90 ± 15.14 g
same,Mean change from baseline ± SEM,"[2]; Experiment Two, first set of rows, 20 minutes",5.91 ± 7.99 g
same,Mean change from baseline ± SEM,"[2]; Experiment Two, first set of rows, 40 minutes",3.89 ± 5.82 g
same,Mean change from baseline ± SEM,"[2]; Experiment Two, first set of rows, 60 minutes",5.94 ± 10.01 g
same,Mean change from baseline ± SEM,"[2]; Experiment Two, first set of rows, 80 minutes",-2.47 ± 9.56 g
same,Mean change from baseline ± SEM,"[2]; Experiment Two, first set of rows, 120 minutes",-11.26 ± 8.92 g
same,Mean change from baseline ± SEM,"[2]; Experiment Two, second set of rows, 20 minutes",-8.50 ± 5.56 g
same,Mean change from baseline ± SEM,"[2]; Experiment Two, second set of rows, 40 minutes",-12.75 ± 6.22 g
same,Mean change from baseline ± SEM,"[2]; Experiment Two, second set of rows, 60 minutes",-8.50 ± 8.50 g
same,Mean change from baseline ± SEM,"[2]; Experiment Two, second set of rows, 80 minutes",-12.75 ± 6.22 g
same,Mean change from baseline ± SEM,"[2]; Experiment Two, second set of rows, 120 minutes",-17.75 ± 6.74 g
same,mean change from baseline,[2]; 20 minutes post carrageenan,−17.50 ± 11.24 grams
same,mean change from baseline,[2]; 40 minutes post carrageenan,−74.70 ± 13.27 grams
same,mean change from baseline,[2]; 60 minutes post carrageenan,−146.70 ± 16.73 grams
same,mean change from baseline,[2]; 80 minutes post carrageenan,−203.30 ± 15.02 grams
same,mean change from baseline,[2]; 120 minutes post carrageenan,−259.90 ± 15.14 grams
